Consider nine compounds from ChEMBL document CHEMBL1150988, “-lactam-recognizing enzymes exhibit different structural specificity in acyclic amide and ester substrates: a starting point in -lactamase evolution?” (Bioorg Med Chem Lett, 1994).

Usually Km stands for the concentration of substrate that gives half-maximal velocity.

“And” between values parts separate entries of the source, which are not always exact repeats. Equal values may be shown once.

For experiment [1], the system named is Streptomyces. The experiment in a line: Kcat against Streptomyces R61 DD-peptidase.
Experiment [2] concerns Streptomyces. The experiment in a line: Km against Streptomyces R61 DD-peptidase.
Experiment [3] concerns the target Beta-lactamase (Enterobacter cloacae) (UniProt P05364). The experiment in a line: Kcat against P99 beta-lactamase.
A short description of experiment [4]: Ratio for Kcat to Km against Streptomyces R61 DD-peptidase. Details: unit not given here.
Experiment [5] in a line: Ratio for Kcat to Km was determined. Details: unit not given here.

Chain of Beta-lactamase (Enterobacter cloacae) (P05364 21-381 limits assumed): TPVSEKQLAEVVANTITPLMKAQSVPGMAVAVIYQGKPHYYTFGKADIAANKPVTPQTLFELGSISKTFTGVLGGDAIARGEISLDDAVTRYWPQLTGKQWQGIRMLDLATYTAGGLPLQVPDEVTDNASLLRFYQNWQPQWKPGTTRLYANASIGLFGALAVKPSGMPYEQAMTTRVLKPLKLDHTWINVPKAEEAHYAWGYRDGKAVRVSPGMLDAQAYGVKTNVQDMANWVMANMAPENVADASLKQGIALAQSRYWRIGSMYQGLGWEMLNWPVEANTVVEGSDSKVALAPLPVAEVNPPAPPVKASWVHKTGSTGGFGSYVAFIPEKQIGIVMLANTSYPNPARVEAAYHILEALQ

Take `CC(=O)NCCCC[C@H](NC(C)=O)C(=O)NCC(=O)S[C@H](C)C(=O)O`: the results for the k cat in experiment [1] and in experiment [3] were 11.9 s⁻¹ and 5.1 s⁻¹, respectively. Further, the Km in experiment [2] was 2 mM. Besides, the Ratio in experiment [4] was 5850; in experiment [5] it was 763.

With `C[C@@H](OC(=O)CNC(=O)Cc1ccccc1)C(=O)O`, the k cat in experiment [1] amounted to 4.3 s⁻¹; in experiment [3] it was 27.3 s⁻¹. Also, the Km in experiment [2] was determined as 11.8 mM. Moreover, the Ratio in experiment [4] stood at 366; in experiment [5], 3390.

Consider `C[C@@H](SC(=O)CNC(=O)Cc1ccccc1)C(=O)O`, for which the k cat in experiment [1] turned out to be 6.1 s⁻¹; in experiment [3] it was 22 s⁻¹. In addition, in experiment [2], the Michaelis constant (Km) came out at 0.63 mM. Moreover, the Ratio in experiment [4] stood at 9660; in experiment [5], 6670.

Regarding `C[C@H](NC(=O)Cc1ccccc1)C(=O)O[C@H](C)C(=O)O`, the figures for the k cat in experiment [1] and in experiment [3] were 24.6 s⁻¹ and 29 s⁻¹, respectively. In addition, in experiment [2], the Km is 6.8 mM. Moreover, the Ratio worked out at 3630 in experiment [4] and 1240 in experiment [5].

In experiment [1], `CC(=O)NCCCC[C@H](NC(C)=O)C(=O)N[C@@H](C)C(=O)N[C@H](C)C(=O)O` had a k cat of 55 s⁻¹. For the same compound, the Km in experiment [2] is 10 mM and 7 mM. Besides, in experiment [4], the Ratio is 5500 and 7890.

The compound `CC(=O)NCCCC[C@H](NC(C)=O)C(=O)NCC(=O)N[C@H](C)C(=O)O` showed a k cat in experiment [1] of 0.019 s⁻¹. For the same compound, the Km in experiment [2] was 15 mM. For the same compound, the Ratio in experiment [4] was 1.3.

Take `CC(=O)NCCCC[C@H](NC(C)=O)C(=O)N[C@@H](C)C(=O)O[C@H](C)C(=O)O`: the k cat in experiment [1] is 65.9 s⁻¹; in experiment [3] it was 63 s⁻¹. Further, in experiment [2], the Km came out at 50.6 mM. Further, the Ratio in experiment [4] was found to be 1300; in experiment [5], 2340.

`CC(=O)NCCCC[C@H](NC(C)=O)C(=O)NCC(=O)O[C@H](C)C(=O)O`: the k cat in experiment [1] was found to be 10.4 s⁻¹; in experiment [3] it was 17.8 s⁻¹. Also, the Km in experiment [2] turned out to be 9.8 mM. Besides, the Ratio in experiment [4] was 1060; in experiment [5], 493.

Turning to `C[C@H](NC(=O)Cc1ccccc1)C(=O)N[C@H](C)C(=O)O`, the k cat in experiment [1] turned out to be 2 s⁻¹. For the same compound, in experiment [2], the Km stood at 7 mM. The Ratio in experiment [4] was determined as 286.
